Data as given in US20150374718A1, “Zhankuic Acid A and Analogs thereof and Their Use as an Anti-Inflammatory Agent” (National Cheng Kung University, priority 2014, published 2015).
Entries after “also recorded” stand apart in the source; their conditions may differ.

Legend:
COX2 and iNOS = test: Immunoblot of COX2 and iNOS in LPS-stimulated peritoneal macrophages; type: cell-based, murine; conditions: ZAA 1 h, then LPS 0.5 μg/mL 24 h; dose-dependent
Experimental: (§1) FIG. 1. ZAA inhibits the production of inflammation-related molecules in LPS- and IFN-γ-stimulated murine macrophages. […] Total cell lysates were subjected to immunoblotting for detecting COX2 and iNOS. Relative expression levels of COX2 and iNOS protein were quantified by densitometric analysis with ImageJ software and normalized according to the β-actin reference band. […] The presence of nitrite in the culture medium was analyzed by the Griess assay and used as an indication of NO levels (n=4; *p<0.05 and ***p<0.001 vs. LPS- or IFN-γ-induced cells). (C) Raw264.7 cells were cotransfected with pNFKB-Luc and pβ-actin-LacZ plasmids. […] Total cell lysates were harvested, and their luciferase activities were determined and normalized on the basis of β-galactosidase activities. Values are means±SD (n=4; *p<0.05 and **p<0.01 vs. LPS-stimulated cells). […] Numbers below the blots in D and those shown in the table below the blots in E represent the relative expression levels quantified by densitometric analysis with ImageJ software and normalized according to the β-actin reference bands. […]
C57BL/6 mice were injected intraperitoneally with 3% thioglycollate, and their peritoneal macrophages were collected 72 h later. […] The presence of nitrite (a metabolite of NO) in the culture medium was analyzed by the Griess assay (Sigma-Aldrich), as previously described (16).

[1] = test system: NF-κB-mediated transactivation in Raw264.7 cells; test: NF-κB luciferase reporter assay; type: cell-based, murine; conditions: ZAA 1 h, then LPS 24 h
Experimental: as §1, with “activities.” for “activities. Values are means±SD (n=4; *p<0.05 and **p<0.01 vs. LPS-stimulated cells).”
Subconfluent Raw264.7 cells cultured in 24-well plates were cotransfected with p-NFκB-Luc and pβ-actin-LacZ plasmids using the Neon Transfection System (Invitrogen, Carlsbad, Calif.) according to the manufacturer's protocol. […] Relative luciferase activity was measured as luciferase activity divided by β-galactosidase activity to normalize transfection efficiency.

[2] = test system: S. choleraesuis-induced TNF-α and IL-6 production; test: ELISA of cytokines in S. choleraesuis-treated RAW264.7 cells; type: cell-based, murine; conditions: ZAA 1 h, 2×10^3 CFU/well
[3] = test system: S. choleraesuis-induced TNF-α and IL-6 production; test: Plasma cytokines in S. choleraesuis-infected mice; type: in vivo; conditions: C57BL/6 mice; ZAA 10 mg/kg, oral S. choleraesuis 2×10^9 CFU/mouse; 6 h
S. choleraesuis = S. choleraesuis growth in LB broth (absorbance at 600 nm); conditions: 24 or 48 h, various concentrations, listed as ZAA
Experimental: S. choleraesuis was cultured in LB broth for 24 or 48 h in the presence of various concentrations of ZAA or ampicillin that served as a positive control. Bacterial growth was assessed by measurement of the absorbance at 600 nm and is expressed as means±SD of at least three independent experiments.

SMILES: C=C(CC[C@@H](C)[C@H]1CC[C@H]2C3=C(C(=O)C[C@]12C)[C@@]1(C)CCC(=O)[C@@H](C)[C@@H]1CC3=O)C(C)C(=O)O (some centres unmarked) [No. 1, Zhankuic acid A]
- level of COX2 induced by LPS (COX2 and iNOS): downregulated
- level of iNOS induced by LPS (COX2 and iNOS): downregulated
- NF-κB-mediated transactivation (relative luciferase activity) [1]: inhibited
- S. choleraesuis-induced TNF-α production ([2]; 4 h): effectively suppressed
- S. choleraesuis-induced IL-6 production ([2]; 6 h): effectively suppressed
- S. choleraesuis-induced IL-6 production [3]: effectively suppressed
- S. choleraesuis-induced TNF-α production [3]: effectively suppressed
- direct effect on growth / replication of Salmonella (S. choleraesuis): cannot inhibit; also recorded: no direct inhibitory effects
